These results are taken from patent US6748900B2, “Methods for growing and imprinting fish using an odorant” (MariCal, Inc., priority 2001, dated 2004).

Test [1] deals with nasal lamellae of Atlantic salmon. As to the kind of experiment: Olfactory response to stimuli alone or in combination with 500 mM NaCl (FIGS. 12B-12D). Format: in vivo, Atlantic salmon (Salmo salar). How it is done:
Stimuli were delivered to the olfactory epithelium via a glass capillary tube placed in the inhalant olfactory opening. This tube was connected to a gravity fed tubing system allowing for switching from a background perfusion (charcoal filtered freshwater) to an experimental stimulus while maintaining a flow rate of 6-8 ml/min. Verification of the location of the stimulus delivery tubes and electrode was made by observing responses to a ‘search stimulus’ of […].
Stimuli consisted of CaR agonists (CaCl2, MgCl2, GdCl3, SrCl2 and NaCl (Sigma-Aldrich), control freshwater stimulus (charcoal filtered tap water) and control seawater stimuli (ASW, Ca-free ASW, Divalent free ASW). Stimuli were presented alone or in combination with 500 mM NaCl. Ringers and artificial seawater recipes were obtained from the Biological Bulletin Compendia (all concentrations are in mM) ASW (nAcl 423, KCl 9.0, CaCl2 22.94, MgSO4 25.50, NaHCO3 2.14, pH 8.0); Ca-free ASW (NaCl 436.71, KCl 9.0, MgCl2 22.94, MgSO4, 25.5, NaHCO3 2.14, pH 8.0); Divalent free ASW (NaCl 461.85, KCl 10.73, NAHCO3 2.14, Na2SO4 7.04, pH 8.0); FW Teleost Ringer's (NaCl 111.0, KCl 5.37, Cacl2 1.0, MgSO4, 0.6, HEPES 5.0, pH 7.3).

Test [2] deals with olfactory epithelium of freshwater adapted juvenile salmon. The test can be described thus: Extracellular electrical potentials (EEG) from olfactory nerve after bolus stimuli to the olfactory epithelium in distilled water. The format is in vivo, Atlantic salmon (Salmo salar). The following applies: for concentration dependence of olfactory nerve impulse: exposure of fish olfactory epithelium. The text has this:
The present invention provides methods for identifying and/or quantifying the effects of PVCR modulators on olfactory receptor sensing and visa versa. The present invention also includes methods for determining whether a compound is an odorant. When fish are exposed to an odorant (e.g., the odorant binds to olfactory lamellae), the odorant binds to the olfactory epithelium of the fish, which leads to the generation of a nerve impulse. The electric potential of the impulse can be measured using methods known in the art, or those later developed. One example of a method that can be used to measure electric potential is an electroencephalogram, commonly referred to as an EEG. Example 3 describes in detail how to measure nerve impulse of fish, and in particular, as it relates to modulation of the PVCR in the olfactory apparatus of the fish. Briefly, the fish are anaesthetized and placed in V-clamp apparatus where its gills were irrigated continuously with aerated seawater and its nasal lamellae bathed continuously by a stream of distilled water via a tube held in position in the inhalant olfactory opening. The olfactory nerves of the fish were exposed by removal of overlying bony structures. Odorants to be tested can be delivered as boluses to the olfactory epithelium via a 3 way valve where 1 cc of water containing the stimulus was rapidly injected into the tube containing a continuously stream of distilled water. […] The results can be analyzed by computer using compatible software.
(§1) Physiol. A 127:157-166 (1975), and Hubbard, PC, et al., Olfactory sensitivity to changes in environmental Ca2+ in the marine teleost Sparus Aurata, J. Exp. Biol. 203:3821-3829 (2000). After anaesthetizing the fish, it was placed in V-clamp apparatus where its gills were irrigated continuously with aerated seawater and its nasal lamellae bathed continuously by a stream of distilled water via a tube held in position in the inhalant olfactory opening. The olfactory nerves of the fish were exposed by removal of overlying bony structures. Stimuli were delivered as boluses to the olfactory epithelium via a 3 way valve where 1 cc of water containing the stimulus was rapidly injected into the tube containing a continuously stream of distilled water. […] Using this experimental approach, stable and reproducible recordings could be obtained for up to 6 hr after the initial surgery on the fish.
Similarly, exposure of olfactory epithelium to the PVCR agonist Gd^3+ produces responses of a similar magnitude to those evoked by Ca^2+ in a concentration range of 1-10 micromolar. […] These dose response curves (EC50 Gd^+3≦Ca^2+<Mg^2+) are similar to those obtained for PVCR modulated responses in other fish epithelium (flounder urinary bladder NaCl-mediated water transport-see SKCaR application).

Another test relates to olfactory epithelium. As to the kind of experiment: Olfactory nerve recording: PVCR agonists added to a repellant (finger rinse) or an attractant (L-alanine). The format is in vivo, Atlantic salmon (Salmo salar). The following applies: for effect on response of olfactory epithelium to mammalian finger rinse: FIG. 13.
From the text: as §1
The ablation of responses to both the PVCR agonists as shown in FIG. 12A as well as mammalian finger rinse indicate that there are some complex interactions between PVCR proteins and other odorant receptors. It is also extremely unlikely that inclusion of PVCR agonists removed all the stimulatory components of mammalian finger rinse from solution such that they were not able to stimulate the epithelium.

Test [3] relates to shark kidney calcium receptor (SKCaR). The test can be described thus: FURA-2 ratio imaging fluorescence of HEK cells stably expressing SKCaR. The conditions noted are these: 10 mM amino acid; for effect on SKCaR's response to a given Ca^2+ concentration: FIG. 16. The format is cell-based, dogfish (Squalus acanthias). The method, then: Full length recombinant dogfish (Squalus acanthias) shark kidney calcium receptor (SKCaR) was expressed in human embryonic kidney cells using methods described herein. The ability of SKCaR to respond to individual amino acids as well as various mixtures was quantified using FURA-2 ratio imaging fluorescence.
Baseline extracellular Ca^2+ concentration was 0.5 mM. Aliquots of Ca^2+ were added to produce final extracellular concentrations of 2.5 mM, 5 mM, 7.5 mM, 10 mM and 20 mM Ca^2+ with changes in the fluorescence recorded. Note that increases in cell fluorescence were greater in the presence of 10 mM Phe for extracellular Ca^2+ concentrations less than 10 mM.

Setting [4] is: 1 mM agonist with 500 mM NaCl, FIG. 12D.
Setting [5] is: 500 micromolar stimulus, FIG. 11.

“Also recorded” adds a separate entry of the source.

Take `[Sr+2]` [Sr2+, strontium]: the “effect on olfactory response to 500 mM NaCl” value (shortened to “effect … to 500 mM NaCl”) in test [1] (setting [4]) was “significantly reduce the olfactory response”.
In the case of `[Mg+2]` [Mg^2+, magnesium], the “effect … to 500 mM NaCl” value in test [1] (setting [4]) is “significantly reduce the olfactory response”. The “concentration at which olfactory epithelium responses first occur” value in test [2] (FIG. 12A) was in the range of 10 to 100 µM. Also, the “concentration dependence of olfactory nerve impulse” value (“concentration dependence” below) in test [2] is reported as “concentration-dependent olfactory nerve impulse”.
neomycin: in test [2], the “concentration dependence” value is given as “concentration-dependent olfactory nerve impulse”.
Take `[Ca+2]` [Ca^2+, calcium]: the “effect on olfactory nerve response to 500 micromolar L-alanine” value in the test with olfactory epithelium (5 mM added, FIG. 14 recording #2) is “complete loss of the corresponding response”. Also, the “effect on response of olfactory epithelium to mammalian finger rinse” value with olfactory epithelium (5 mM agonist included) was “reversibly ablated the response”. Also, the “response to subsequent identical L-alanine stimulus without the agonist” value in the test on olfactory epithelium (after 5 mM, FIG. 14 recording #3) was “return of the signal”. Besides, in test [1] (setting [4]), the “effect … to 500 mM NaCl” value was “significantly reduce the olfactory response”. Further, in test [1] (10 mM in 500 mM NaCl, FIG. 12C), the “olfactory response in a 500 mM NaCl solution” value is “identical to that produced by artificial seawater (ASW) exposure”. In test [1] (FIG. 12C, various concentrations in 500 mM NaCl), the “effect on olfactory response produced by 500 mM NaCl” value is “reduces the olfactory response”. Also, the “olfactory nerve response (EEG activity)” value in test [2] (1 mM stimulus, FIG. 11) is recorded as “responses in EEG activity”; in test [2] (1 mM stimulus, FIG. 11, listed as calcium), “existence of an olfactory recording”. In addition, the EC50 in test [2] (FIG. 12A, responses normalized to 10 mM Ca^2+, multiple fish, read-out: half maximal excitatory response (EC50)) lay within 1 to 10 µM. In test [2], the “concentration dependence” value is given as “concentration-dependent olfactory nerve impulse”.
Regarding `CC[C@H](C)[C@H](N)C(=O)O` [Ile, L-Isoleucine], the “effect on SKCaR's response to a given Ca^2+ concentration” value in test [3] was “increase SKCaR's response”.
As to `[Cl-].[Na+]` [NaCl, sodium chloride], in the test on olfactory epithelium (after 250 mM, FIG. 14 recordings #5 and #10), the “response to subsequent L-Alanine alone” value is listed as “enhanced response to L-Alanine alone”. Further, in test [1] (500 mM alone, FIG. 12D), the “olfactory response to irrigation of the nasal lamellae” value is on record as “large response”. Also, the “olfactory nerve response (EEG activity)” value in test [2] (250 mM stimulus, FIG. 11) was “responses in EEG activity; also recorded: existence of an olfactory recording”. Moreover, the “concentration until which olfactory epithelium is unresponsive” value in test [2] (FIG. 12A) is given as 250 millimolar.
For the molecule `[Gd+3]` [Gd^3+, gadolinium], the “effect on olfactory nerve response to 500 micromolar L-alanine” value with olfactory epithelium (50 micromolar added, FIG. 14 recording #7) is “complete loss of the corresponding response”. For the same molecule, the “effect on response of olfactory epithelium to mammalian finger rinse” value in the test with olfactory epithelium (50 micromolar agonist included) is given as “reversibly ablated the response”; in the test with olfactory epithelium (50 micromolar agonist included, listed as gadolinium), “reversibly altered”. Besides, the “response to subsequent identical L-alanine stimulus without the agonist” value in the test on olfactory epithelium (after 50 micromolar, FIG. 14 recording #8 vs #6) is listed as “return of the signal; also recorded: decreased as compared to control”. Also, the “effect … to 500 mM NaCl” value in test [1] (50 micromolar agonist with 500 mM NaCl, FIG. 12D) is recorded as “significantly reduce the olfactory response”. Further, the olfactory nerve response result in test [2] (50 micromolar stimulus, FIG. 11, listed as Gadolinium) is given as “existence of an olfactory recording”; in test [2] (50 micromolar stimulus, FIG. 11, listed as gadolinium) it was “obtained a response”. Also, the “concentration range producing responses of a similar magnitude to those evoked by Ca^2+” value in test [2] (FIG. 12A) lay in the range of 1 to 10 µM. Moreover, the “concentration dependence” value in test [2] is reported as “concentration-dependent olfactory nerve impulse”.
Consider `C[C@H](N)C(=O)O` [L-alanine], for which, in test [2] (setting [5]), the “duration of olfactory nerve response” value was “approximately 2 seconds”; the olfactory nerve response result is “large increases in both the firing frequency and amplitude; also recorded: existence of an olfactory recording”.
`N[C@@H](Cc1ccccc1)C(=O)O` [Phe, L-Phenylalanine]: in test [3], the “effect on SKCaR's response to a given Ca^2+ concentration” value is “increase SKCaR's response”. Further, the “increases in cell fluorescence on addition of extracellular Ca^2+” value in test [3] (extracellular Ca^2+ less than 10 mM, FIG. 15) was “greater”.
